In paper PMC10247784, “Physiological activation of human and mouse bitter taste receptors by bile acids” (Communications Biology, 2023):
Values joined by “and” are separate entries in the source; they are usually repeats but may differ in a detail not shown here. Equal entries are not always repeated.

Target: T1, human TAS2R1 (Homo sapiens, UniProt Q9NYW7)
T1 construct: expressed in transfected cells; host or cells: HEK293T-Gα16gust44
T1 sequence (Q9NYW7 1-299): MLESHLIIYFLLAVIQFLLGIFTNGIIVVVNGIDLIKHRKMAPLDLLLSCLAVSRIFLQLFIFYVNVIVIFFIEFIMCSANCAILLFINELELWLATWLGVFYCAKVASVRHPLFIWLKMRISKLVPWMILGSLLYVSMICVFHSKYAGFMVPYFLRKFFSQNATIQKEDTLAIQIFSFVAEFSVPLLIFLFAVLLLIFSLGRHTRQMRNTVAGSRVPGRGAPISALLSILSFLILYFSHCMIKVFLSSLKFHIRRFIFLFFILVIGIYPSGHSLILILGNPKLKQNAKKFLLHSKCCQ
Assay: Calcium imaging assay (FLIPR), HEK293T-Gα16gust44 cells transfected with human TAS2R1
Type: cell-based
Method: This set of bile acids was chosen because of their commercial availability in high purities, their diversity within the class of bile acids and their previous detection and quantitation in human blood. Stock solutions were prepared in DMSO.
As basal growth medium for the HEK293T-Gα16gust44 cell line[17],[59] served Dulbecco’s modified eagle medium (DMEM) (Thermo Fisher Scientific, Darmstadt, Germany) supplemented with 10 % fetal bovine serum (Sigma-Aldrich, Steinheim, Germany), 2 mM L-glutamine (Sigma-Aldrich, Steinheim, Germany), 100 units/ml penicillin (Sigma Aldrich, Steinheim, Germany) and 100 µg/ml streptomycin (Sigma Aldrich, Steinheim, Germany). Growth conditions were 37 °C, 5 % CO2 and saturated air-humidity[60].
HEK293T-Gα16gust44 cells were seeded on poly-D-lysine (10 µg/ml) coated 96-well plates to reach a confluence of 40-60 % the next day. For transient transfection 150 ng of plasmid DNA containing the receptor of interest and 0.3 µl lipofectamine 2000 (Thermo Fisher Scientific, Darmstadt, Germany) per well were used and transfection took place according to the manual of lipofectamine 2000. […] The empty vector DNA (mock) was transfected as negative control[14],[41].
Cells were loaded using the calcium-sensitive fluorescent dye Fluo-4-AM (Abcam, Cambridge, Great Britain) in the presence of 2.5 mM probenecid (Sigma-Aldrich, Steinheim, Germany) the day after transfection[13],[41]. 1 h after loading, cells were washed with C1 buffer using a BioTek Cell Washer, incubated in the dark for half an hour and washed again. For automated agonist application and measurement of fluorescence changes, a FLIPR^TETRA device (Molecular Devices, San José, United States) was used. Viability of cells was tested by application of 100 nM Somatostatin 14 (Bachem, Bubendorf, Switzerland)[42].
Measured data were negative control corrected by subtracting the signal of the mock-transfected cells and exported to Microsoft Excel using the FLIPR software ScreenWorks 4.2. In Microsoft Excel software, standardization of maximum fluorescence intensities to the basal fluorescence and normalization to the buffer-only control was done to calculate the relative fluorescence changes (ΔF/F).
Initial screening experiments performed in duplicate wells were confirmed by at least one replication and representative traces were selected for display. All dose-response relationships were determined by three independent experiments (biological replicates) performed in duplicates (technical replicates). Threshold concentrations, defined as lowest substance concentrations leading to statistically significant elevated fluorescence changes in receptor-transfected cells compared with empty vector-transfected cells, were determined using SigmaPlot with Student’s t-test to evaluate statistical significance (p < 0.01).

Compound: C[C@H](CCC(=O)NCCS(=O)(=O)O)[C@H]1CC[C@H]2[C@@H]3CC[C@@H]4C[C@H](O)CC[C@]4(C)[C@H]3CC[C@]12C [Taurolithocholic Acid, taurolithocholic acid]
- Efficacy = maximal amplitude (ΔF/F) (TAS2R1, bile acids, mean): 0.1277
- Efficacy (maximal amplitude ΔF/F), individual data points (TAS2R1, bile acids, single replicates, listed as TLCA): 0.1258 and 0.1227 and 0.1699 and 0.1221 and 0.09796
- RLU (Time 0 s (second time grid)): 0 RLU
- RLU (Time 2 s): -8.765 RLU
- RLU (Time 4 s): 34.6882 RLU
- RLU (Time 6 s): 11.8088 RLU
- RLU (Time 8 s): 18.099 RLU
- RLU (Time 12 s): 15.1496 RLU
- RLU (Time 14 s): 13.1492 RLU
- RLU (Time 16 s): 0.9458 RLU
- RLU (Time 18 s): 9.703 RLU
- RLU (Time 18.781 s): 5.165 RLU
- RLU (Time 20.781 s): 27.2472 RLU
- RLU (Time 22.781 s): 1.644 RLU
- RLU (Time 24.781 s): -21.8293 RLU
- RLU (Time 26.781 s): 33.0454 RLU
- RLU (Time 28.781 s): 106.888 RLU
- RLU (Time 30.781 s): 183.135 RLU
- RLU (Time 32.781 s): 270.143 RLU
- RLU (Time 34.781 s): 337.182 RLU
- RLU (Time 36.781 s): 405.016 RLU
- RLU (Time 38.781 s): 448.367 RLU
- RLU (Time 40.781 s): 483.096 RLU
- RLU (Time 42.781 s): 511.157 RLU
- RLU (Time 44.781 s): 542.077 RLU
- RLU (Time 46.781 s): 572.975 RLU
- RLU (Time 48.781 s): 599.496 RLU
- RLU (Time 50.781 s): 624.238 RLU
- RLU (Time 52.781 s): 642.403 RLU
- RLU (Time 54.781 s): 649.802 RLU
- RLU (Time 56.781 s): 680.566 RLU
- RLU (Time 58.781 s): 693.048 RLU
- RLU (Time 60.781 s): 676.887 RLU
- RLU (Time 62.781 s): 735.967 RLU
- RLU (Time 64.781 s): 726.535 RLU
- RLU (Time 66.781 s): 712 RLU
- RLU (Time 68.781 s): 708.17 RLU
- RLU (Time 70.781 s): 740.519 RLU
- RLU (Time 72.781 s): 720.827 RLU
- RLU (Time 74.781 s): 715.629 RLU
- RLU (Time 76.781 s): 740.295 RLU
- RLU (Time 78.781 s): 736.469 RLU
- RLU (Time 80.781 s): 705.753 RLU
- RLU (Time 82.781 s): 719.776 RLU
- RLU (Time 84.781 s): 729.602 RLU
- RLU (Time 86.781 s): 717.016 RLU
- RLU (Time 88.781 s): 708.528 RLU
- RLU (Time 90.781 s): 685.914 RLU
- RLU (Time 92.781 s): 709.593 RLU
- RLU (Time 94.781 s): 708.426 RLU
- RLU (Time 96.781 s): 665.125 RLU
- RLU (Time 98.781 s): 639.76 RLU
- RLU (Time 100.781 s): 661.017 RLU
- RLU (Time 102.781 s): 653.391 RLU
- RLU (Time 104.781 s): 622.006 RLU
- RLU (Time 106.781 s): 616.277 RLU
- RLU (Time 108.781 s): 602.431 RLU
- RLU (Time 110.781 s): 574.352 RLU
- RLU (Time 112.781 s): 593.769 RLU
- RLU (Time 114.781 s): 553.55 RLU
- RLU (Time 116.781 s): 583.964 RLU
- RLU (Time 118.781 s): 539.304 RLU
- RLU (Time 120.781 s): 524.165 RLU
- RLU (Time 122.781 s): 518.27 RLU
- RLU (Time 124.781 s): 503.611 RLU
- RLU (Time 126.781 s): 474.132 RLU
- RLU (Time 128.781 s): 435.021 RLU
- RLU (Time 130.781 s): 439.84 RLU
- RLU (Time 132.781 s): 420.045 RLU
- RLU (Time 134.781 s): 393.577 RLU
- RLU (Time 136.781 s): 395.556 RLU
- RLU (Time 137.547 s): 402.14 RLU
- RLU (Time 143.547 s): 371.698 RLU
- RLU (Time 149.547 s): 331.65 RLU
- RLU (Time 155.547 s): 280.988 RLU
- RLU (Time 161.547 s): 237.537 RLU
- RLU (Time 167.547 s): 191.55 RLU
- RLU (Time 173.547 s): 185.568 RLU
- RLU (Time 179.547 s): 137.711 RLU
- RLU (Time 185.547 s): 105.562 RLU
- RLU (Time 191.547 s): 24.299 RLU
- RLU (Time 197.547 s): 1.672 RLU
- RLU (Time 203.547 s): -7.55 RLU
- RLU (Time 209.547 s): -39.8614 RLU
- RLU (Time 215.547 s): -81.387 RLU
- RLU (Time 221.547 s): -74.4232 RLU
- RLU (Time 227.547 s): -79.2952 RLU
- RLU (Time 233.547 s): -69.562 RLU
- RLU (Time 239.547 s): -81.6561 RLU
- RLU (Time 245.547 s): -72.3962 RLU
- RLU (Time 293.547 s): -154.558 RLU
- RLU (Time 299.547 s): -170.989 RLU
- RLU (calcium trace, sheet TAS2R1, Time 305.547 s): -184.97 RLU
- RLU (calcium trace, sheet TAS2R1, Time 311.547 s): -208.123 RLU
- RLU (calcium trace, sheet TAS2R1, Time 317.547 s): -201.311 RLU
- RLU (calcium trace, sheet TAS2R1, Time 323.547 s): -236.998 RLU
- RLU (calcium trace, sheet TAS2R1, Time 329.547 s): -230.646 RLU
- RLU (calcium trace, sheet TAS2R1, Time 335.547 s): -241.48 RLU
- RLU (calcium trace, sheet TAS2R1, Time 341.547 s): -222.174 RLU
- RLU (calcium trace, sheet TAS2R1, Time 347.547 s): -215.316 RLU
- RLU (calcium trace, sheet TAS2R1, Time 353.547 s): -228.211 RLU
- RLU (calcium trace, sheet TAS2R1, Time 359.547 s): -233.286 RLU
- EC50 (calculated where receptor saturation was reached): 1900 nM
- Activation threshold concentration TAS2R1 (lowest concentration with significantly increased fluorescence vs empty vector (p < 0.01)): 0.3 µM and 0.30 µM
